Measured values taken from paper PMC5196235 (International Journal for Parasitology: Drugs and Drug …, 2016).
Counter-ions that a name gives are not always drawn.

Experiments:
Asu-ACR-16 receptor [1] = target: T1, Asu-ACR-16 receptor (Ascaris suum, UniProt F1KYJ9); test: Two-electrode voltage clamp of Asu-ACR-16 expressed in Xenopus oocytes; assay type: cell-based; settings: for effect at high concentration (response left out of the Hill fit): 30 μM 5-methylnicotine, 100 μM 6-methylnicotine, 300 μM homonicotine, 100 μM (S, R)-anabasine; for Hill slope (nH): Asu-ACR-16 in Xenopus oocytes, Hill equation fit, mean ± S.E.M., N = 5; for Emax: read-out: maximum response (Imax)
T1 sequence (F1KYJ9 1-504): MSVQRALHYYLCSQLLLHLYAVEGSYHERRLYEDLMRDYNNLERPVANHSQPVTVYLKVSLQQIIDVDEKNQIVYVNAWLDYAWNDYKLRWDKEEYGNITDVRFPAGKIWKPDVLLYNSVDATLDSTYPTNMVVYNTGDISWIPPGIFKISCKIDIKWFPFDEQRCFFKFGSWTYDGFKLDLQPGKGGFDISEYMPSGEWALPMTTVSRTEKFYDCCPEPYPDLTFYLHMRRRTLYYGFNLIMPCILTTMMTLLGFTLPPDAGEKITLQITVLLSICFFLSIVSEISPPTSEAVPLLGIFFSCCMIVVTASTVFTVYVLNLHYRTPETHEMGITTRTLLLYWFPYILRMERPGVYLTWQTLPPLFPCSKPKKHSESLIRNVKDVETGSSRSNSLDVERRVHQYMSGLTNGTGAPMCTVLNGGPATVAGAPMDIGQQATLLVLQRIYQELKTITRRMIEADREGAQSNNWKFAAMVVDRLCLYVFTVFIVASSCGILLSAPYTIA

Asu-ACR-16 receptor [2] = target: T1, Asu-ACR-16 receptor; settings: ref Abongwa et al., 2016; cited from earlier work

| Molecule | Hill slope (nH) (Asu-ACR-16 receptor [1]) | sensitivity of the Asu-ACR-16 receptor to the agonist (Asu-ACR-16 receptor [2]) | also measured |
| --- | --- | --- | --- |
| Cc1cncc(C2CCCN2C)c1 (racemic) [5-methylnicotine, rac-5-methylnicotine] | 2.09 ± 0.14 |  | effect at high concentration (response left out of the Hill fit) (Asu-ACR-16 receptor [1]): inhibitory effects at high concentrations |
| O=c1c(Br)ccc2n1C[C@@H]1CNC[C@H]2C1 [3-bromocytisine] |  | sensitive |  |
| CN1CCCC1c1ccc(N)nc1.Cl.Cl (stereo not drawn) [6-AN, 5-(1-methyl-pyrrolidin-2-yl)-pyridin-2-ylamine dihydrochloride] | 10.10 ± 0.15 |  | agonist activity on Asu-ACR-16 (inward current) (Asu-ACR-16 receptor [1]; derivatives that elicited inward currents at 100 μM were classed as agonists): little agonist activity; Emax (Asu-ACR-16 receptor [1]): 6.29 ± 0.62% |
| CN1CCC[C@H]1c1cncc(Br)c1 [(S)-5-bromonicotine] | 2.46 ± 0.21 |  |  |
| CN1CCC[C@H]1c1cccnc1 [(S)-nicotine, (−)-nicotine hydrogen tartrate salt] | 3.39 ± 0.36 | sensitive |  |
| C#Cc1cncc([C@@H]2CCCN2C)c1 [(S)—SIB 1508Y] | 0.94 ± 0.04 |  | Emax (Asu-ACR-16 receptor [1]): 100 ± 4.36% |
| CC(=O)OCC[N+](C)(C)C [ACh, acetylcholine] | 2.93 ± 0.13 | sensitive |  |
| C[N+]1(C)CCN(c2ccccc2)CC1.[I-] [DMPP, dimethyl-4-phenyllpiperazinium iodide] |  | sensitive |  |
| O=c1cccc2n1C[C@@H]1CNC[C@H]2C1 [cytisine] |  | sensitive |  |
| Clc1ccc(C2CC3CCC2N3)cn1 (stereo not drawn) [epibatidine] |  | sensitive |  |
| (±)-nornicotine | 3.25 ± 0.49 |  |  |
| anabasine [(S, R)-anabasine] |  |  | effect at high concentration (response left out of the Hill fit) (Asu-ACR-16 receptor [1]): inhibitory effect |
